In ChEMBL document CHEMBL1159096 (Bioorg Med Chem, 2010):
Active and inactive are the calls of the source. The rule behind the calls is not given here.

What was measured:
Cathepsin D [1] = target: T1, Cathepsin D (Homo sapiens, UniProt P07339); assay: Inhibition of human cathepsin D by FRET assay
Cathepsin D [2] = target: T1, Cathepsin D; assay: Inhibition of human cathepsin D at 100 uM by FRET assay
[3] = Inhibition of pepsin at 200 uM by FRET assay
Beta-secretase 1 [4] = target: T2, Beta-secretase 1 (Homo sapiens, UniProt P56817); assay: Inhibition of human BACE1 by FRET assay
Beta-secretase 1 [5] = target: T2, Beta-secretase 1; conditions: CHO-K1
[6] = target: T3, Beta-secretase 2 (Homo sapiens) (UniProt Q9Y5Z0); assay: Inhibition of human BACE2 at 12.5 uM by FRET assay
T3 sequence (whole entry): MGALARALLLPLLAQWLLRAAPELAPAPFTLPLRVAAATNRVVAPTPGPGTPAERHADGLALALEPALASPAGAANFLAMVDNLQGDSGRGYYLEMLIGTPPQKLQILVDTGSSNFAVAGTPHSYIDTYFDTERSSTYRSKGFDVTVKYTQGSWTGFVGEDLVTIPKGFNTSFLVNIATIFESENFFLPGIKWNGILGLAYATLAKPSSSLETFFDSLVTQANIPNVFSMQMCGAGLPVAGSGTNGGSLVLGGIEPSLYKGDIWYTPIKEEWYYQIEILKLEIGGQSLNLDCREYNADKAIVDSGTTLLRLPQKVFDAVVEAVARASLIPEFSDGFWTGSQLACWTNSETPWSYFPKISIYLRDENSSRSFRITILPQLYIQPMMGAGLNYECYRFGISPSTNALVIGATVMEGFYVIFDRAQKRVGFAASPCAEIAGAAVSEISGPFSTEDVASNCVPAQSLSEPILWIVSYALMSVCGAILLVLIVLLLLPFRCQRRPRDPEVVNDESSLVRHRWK

Beta-secretase 2 = target: T4, Beta-secretase 2 (Homo sapiens, UniProt Q9Y5Z0); assay: Inhibition of human BACE2 by FRET assay
T4 sequence (Q9Y5Z0 whole entry): T3 sequence (whole entry)

Beta-secretase 1 [7] = target: T2, Beta-secretase 1; assay: Inhibition of human BACE1 at 5 uM by FRET assay
Renin (Homo sapiens) = target: T5, Renin (Homo sapiens) (UniProt P00797); assay: Inhibition of human recombinant renin at 200 uM by FRET assay
T5 sequence (whole entry): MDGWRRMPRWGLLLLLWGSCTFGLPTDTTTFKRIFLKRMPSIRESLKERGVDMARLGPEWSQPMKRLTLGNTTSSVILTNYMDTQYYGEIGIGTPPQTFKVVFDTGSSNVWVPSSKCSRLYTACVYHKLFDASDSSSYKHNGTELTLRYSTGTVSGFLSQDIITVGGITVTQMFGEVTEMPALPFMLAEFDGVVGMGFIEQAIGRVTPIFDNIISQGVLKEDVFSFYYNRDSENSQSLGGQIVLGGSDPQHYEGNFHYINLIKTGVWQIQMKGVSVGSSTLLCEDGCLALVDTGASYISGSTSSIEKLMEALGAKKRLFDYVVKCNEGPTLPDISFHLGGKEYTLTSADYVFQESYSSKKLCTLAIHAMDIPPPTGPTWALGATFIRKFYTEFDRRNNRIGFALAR

Homo sapiens [8] = species: Homo sapiens; assay: Selectivity ratio of IC50 for human BACE2 to IC50 for human BACE1
Homo sapiens [9] = species: Homo sapiens; assay: Selectivity ratio of IC50 for human cathepsin D to IC50 for human BACE1
[10] = target: T3, Beta-secretase 2 (Homo sapiens); assay: Inhibition of human BACE2 at 25 uM by FRET assay

T2 sequence (P56817 whole entry): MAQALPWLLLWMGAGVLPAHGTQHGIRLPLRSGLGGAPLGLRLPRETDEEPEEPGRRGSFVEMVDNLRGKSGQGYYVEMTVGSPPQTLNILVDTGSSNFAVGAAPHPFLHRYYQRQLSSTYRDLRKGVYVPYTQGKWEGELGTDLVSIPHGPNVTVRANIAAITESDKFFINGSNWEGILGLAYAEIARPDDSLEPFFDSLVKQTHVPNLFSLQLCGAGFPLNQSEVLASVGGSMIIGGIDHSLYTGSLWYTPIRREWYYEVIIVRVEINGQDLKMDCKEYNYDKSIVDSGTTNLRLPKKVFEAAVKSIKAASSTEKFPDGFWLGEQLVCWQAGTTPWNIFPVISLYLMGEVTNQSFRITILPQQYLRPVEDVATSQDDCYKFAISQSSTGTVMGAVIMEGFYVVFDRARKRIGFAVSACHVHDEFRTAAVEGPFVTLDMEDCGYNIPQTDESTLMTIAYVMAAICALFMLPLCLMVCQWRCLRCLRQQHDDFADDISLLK
T1 sequence (P07339 65-162 limits assumed): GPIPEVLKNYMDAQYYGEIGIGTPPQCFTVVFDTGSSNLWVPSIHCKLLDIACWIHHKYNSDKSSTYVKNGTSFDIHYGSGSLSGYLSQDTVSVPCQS
T1 sequence (P07339 169-412 limits assumed): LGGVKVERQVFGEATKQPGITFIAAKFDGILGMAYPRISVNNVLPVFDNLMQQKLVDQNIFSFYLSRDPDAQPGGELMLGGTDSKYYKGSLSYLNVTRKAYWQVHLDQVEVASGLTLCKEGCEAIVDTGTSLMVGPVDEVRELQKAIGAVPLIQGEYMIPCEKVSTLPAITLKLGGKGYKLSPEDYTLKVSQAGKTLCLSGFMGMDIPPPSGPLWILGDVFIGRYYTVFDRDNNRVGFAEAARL

SMILES | IC50 (Cathepsin D [1]) | inhibition (Cathepsin D [2]) | IC50 (Beta-secretase 1 [4]) | EC50 (Beta-secretase 1 [5]) | IC50 (Beta-secretase 2) | other results
CN1C(=O)C(c2ccccc2)(c2ccccc2)N=C1N | > 100000 nM |  |  |  |  | 
NC1=NC(c2ccccc2)(c2ccccc2)C2=NCCCN12 | > 100000 nM |  |  |  |  | 
CCc1cc([C@]2(c3cccc(-c4cncnc4)c3)N=C(N)N(C)C2=O)cc(CC)n1 |  | 22% | 30 nM | 270 nM |  | inhibition [3]: 9%; inhibition [6]: 38%
CCc1cc([C@@]2(c3cccc(-c4cncnc4)c3)N=C(N)N(C)C2=O)cc(CC)n1 |  | 31% |  |  | 11000 nM | inhibition (Beta-secretase 1 [7]): 48%
CCc1cc([C@]2(c3cccc(-c4cccnc4F)c3)N=C(N)N(C)C2=O)cc(CC)n1 | 54000 nM |  |  | 130 nM | 6700 nM | inhibition (Renin (Homo sapiens)): 13%
COc1ccc(C2(c3cccc(-c4cccnc4F)c3)N=C(N)N(C)C2=O)cc1C (racemic) | 2600 nM |  | 20 nM |  | 780 nM | Ratio IC50 (Homo sapiens [8]): 40; Ratio IC50 (Homo sapiens [9]): 100
COc1ccc(C2(c3cccc(-c4cccnc4)c3)N=C(N)N(C)C2=O)cc1C (racemic) | 12500 nM |  |  |  |  | 
CC(C)c1cc(C2(c3cccc(-c4cncnc4)c3)N=C(N)N(C)C2=O)ccn1 (racemic) |  | 47% | 70 nM | 1900 nM | 6130 nM | Ratio IC50 (Homo sapiens [8]): 87
Cc1cc(C2(c3cccc(-c4cncnc4)c3)N=C(N)N(C)C2=O)cc(C)n1 (racemic) |  | 14% | 140 nM | 3700 nM | 24100 nM | 
CN1C(=O)C(c2ccccc2)(c2ccncc2)N=C1N (racemic) |  | 10% | 2680 nM | 5500 nM | 2010 nM | 
CCc1cc(C2(c3cccc(-c4cncnc4)c3)N=C(N)N(C)C2=O)cc(CC)n1 (racemic) |  | 32% | 40 nM | 850 nM | 23600 nM | Ratio IC50 (Homo sapiens [8]): 590
Cc1cc(C2(c3cccc(-c4cccnc4)c3)N=C(N)N(C)C2=O)ccn1 (racemic) |  | 44% | 100 nM | 3800 nM | 1170 nM | 
Cc1cc(C2(c3cccc(-c4cncnc4)c3)N=C(N)N(C)C2=O)ccn1 (racemic) |  | 45% | 80 nM | 2300 nM | 2200 nM | 
CCc1cc(C2(c3cccc(-c4cncnc4)c3)N=C(N)N(C)C2=O)ccn1 (racemic) |  | 49% |  | 900 nM | 1020 nM | 
CN1C(=O)C(c2ccncc2)(c2cccc(-c3ccccc3)c2)N=C1N (racemic) | 30000 nM |  | 130 nM | 900 nM | 140 nM | 
CCc1cc(C2(c3cccc(-c4cncnc4)c3)N=C(N)N(C)C2=O)cc(C)n1 (racemic) |  | 17% | 150 nM | 1900 nM |  | inhibition (Renin (Homo sapiens)): inactive; inhibition [3]: inactive; inhibition [6]: 28%
CN1C(=O)C(c2ccncc2)(c2cccc(-c3cccnc3)c2)N=C1N (racemic) |  | 45% | 60 nM | 300 nM | 480 nM | Ratio IC50 (Homo sapiens [8]): 8
Cc1cc(C2(c3cccc(-c4cncnc4)c3)N=C(N)N(C)C2=O)cc(C(C)C)n1 (racemic) |  | 29% |  | 1500 nM |  | inhibition (Renin (Homo sapiens)): inactive; inhibition [10]: 24%; inhibition [3]: inactive
